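Results reflect a 48-hour exposure of cells in 96-well plates to compound at five concentrations. The concentration for 50% growth inhibition is given as GI50.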 The source made the active and inactive calls. Cut-off read from the data, not from the text of the source: active = GI50 up to about 1.1 µM and inactive = higher.
Experiments:
Experiment in all cases: inhibition of tumour cell growth, NCI panel, 48 h
DLD-1 = tested on: DLD-1
DMS-114 = tested on: DMS-114
DMS-273 = tested on: DMS-273
HOP-18 = tested on: HOP-18
KM-20L2 = tested on: KM-20L2
LXFL 529 = tested on: LXFL 529
M19-MEL = tested on: M19-MEL
XF498 = tested on: XF498
RXF 631 = tested on: RXF 631

Measured: GI50

CN(C)c1ccc(/C=C/c2cc[n+](C)c3ccccc23)cc1
inactive: DLD-1 2.68 µM | DMS-114 2.3 µM | DMS-273 2.39 µM | HOP-18 3.47 µM | KM-20L2 3.04 µM | LXFL 529 1.23 µM | M19-MEL 1.44 µM

COC(=O)c1cc(C(=O)OC)c(CC(=O)C(=O)NC2C3CC4CC(C3)CC2C4)nc1CC(=O)C(=O)NC1C2CC3CC(C2)CC1C3 (centres undefined)
inactive: DLD-1 > 100 µM | DMS-114 > 100 µM | DMS-273 > 100 µM | HOP-18 > 100 µM | KM-20L2 > 100 µM | LXFL 529 > 100 µM | M19-MEL > 100 µM

Cc1cc2c(C)n(Cc3ccc(Cl)cc3Cl)nc2c(C#N)c1C
inactive: DLD-1 > 100 µM | DMS-114 36.4 µM | DMS-273 50.8 µM | HOP-18 40.8 µM | KM-20L2 36.5 µM | LXFL 529 59.6 µM | M19-MEL 73.8 µM | XF498 15.8 µM

O=C1c2ccccc2N2OC3(N4CCOCC4)CCCC3C12c1ccccc1 (centres undefined)
inactive: DLD-1 > 100 µM | DMS-114 > 100 µM | DMS-273 > 100 µM | HOP-18 > 100 µM | KM-20L2 > 100 µM | LXFL 529 > 100 µM | M19-MEL > 100 µM | XF498 > 100 µM

Clc1cccc(C2SCc3nc4ccccc4n32)c1 (centres undefined)
inactive: DLD-1 15.8 µM | HOP-18 18.5 µM | LXFL 529 19.9 µM | M19-MEL 19.4 µM

O=C(Nc1ccc(Br)cc1)C(=O)C(C(=O)c1ccc(Cl)c(Cl)c1)C1OC(=O)c2ccccc21 (centres undefined)
inactive: DLD-1 18.3 µM | DMS-114 10.9 µM | DMS-273 19.1 µM | HOP-18 14.4 µM | KM-20L2 33 µM | LXFL 529 9.98 µM | M19-MEL 15 µM | XF498 13.8 µM

COc1ccc(OC)c(NC(=O)C(=O)C(C(C)=O)c2nc3ccc(Cl)cc3nc2O)c1 (centres undefined)
inactive: DLD-1 > 50 µM | DMS-114 > 50 µM | DMS-273 > 50 µM | HOP-18 45.2 µM | KM-20L2 > 50 µM | LXFL 529 > 50 µM | M19-MEL > 50 µM | RXF 631 > 50 µM | XF498 > 50 µM

COC1(OC)CC2CCCCC2=C(C)N1S(=O)(=O)c1ccccc1 (centres undefined)
inactive: DLD-1 > 100 µM | DMS-273 > 100 µM | HOP-18 > 100 µM | KM-20L2 > 100 µM | LXFL 529 > 100 µM | M19-MEL > 100 µM | RXF 631 > 100 µM | XF498 > 100 µM

[N-]=[N+]=Nc1nnc(CCCCc2nnc(N=[N+]=[N-])o2)o1
inactive: DLD-1 > 100 µM | DMS-114 > 100 µM | HOP-18 > 100 µM | KM-20L2 > 100 µM | LXFL 529 > 100 µM | M19-MEL > 100 µM | RXF 631 25.4 µM | XF498 > 100 µM

COC(=O)/C=C(C)/C=C/C1OC(C)OCC1O (centres undefined)
inactive: DLD-1 > 100 µM | DMS-114 > 100 µM | DMS-273 > 100 µM | KM-20L2 > 100 µM | LXFL 529 > 100 µM | M19-MEL > 100 µM

Nc1nc2c(ncn2Cc2ccccc2CCO)c(=O)[nH]1
inactive: DMS-114 > 100 µM | DMS-273 > 100 µM | KM-20L2 > 100 µM | LXFL 529 > 100 µM | M19-MEL > 100 µM | RXF 631 > 100 µM | XF498 > 100 µM

Cc1csc2nc(-c3ccncc3)cn12
inactive: DLD-1 > 63.1 µM | DMS-114 > 42.1 µM | DMS-273 19.7 µM | HOP-18 > 57.9 µM | KM-20L2 > 65 µM | LXFL 529 > 51.3 µM | M19-MEL > 59.6 µM | RXF 631 > 88.3 µM | XF498 > 100 µM

O=C1NC(c2ccc(O)cc2)C2CCC1C2 (centres undefined)
inactive: DLD-1 > 100 µM | DMS-114 > 100 µM | KM-20L2 > 100 µM | LXFL 529 > 100 µM | M19-MEL > 100 µM | XF498 > 100 µM

N#Cc1cc([N+](=O)[O-])ccc1NC(=O)C(F)(F)F
inactive: DLD-1 > 58.9 µM | DMS-114 > 40.8 µM | DMS-273 > 100 µM | HOP-18 > 85.9 µM | KM-20L2 > 74.5 µM | LXFL 529 > 100 µM | M19-MEL > 100 µM | XF498 > 100 µM

CCN(CC)c1ccc(/N=N/c2ccc(-c3nc4cccn(C)c-4n3)cc2)cc1
inactive: DLD-1 4.83 µM | DMS-114 3.61 µM | DMS-273 3.18 µM | HOP-18 40.1 µM | KM-20L2 5.32 µM | LXFL 529 3.95 µM | M19-MEL 5.38 µM | RXF 631 3.41 µM | XF498 14.1 µM

COC(=O)/C(=N/NC(C)(C)C)C(C(=O)C=C(C)C)C(=O)C(=O)Nc1ccc(Cl)cc1C (centres undefined)
inactive: DMS-114 > 100 µM | KM-20L2 > 100 µM | LXFL 529 > 100 µM | M19-MEL > 100 µM | XF498 > 100 µM

COC(=O)C(=O)C(C(C)=O)C(=O)NCc1ccc(OC)c(OC)c1 (centres undefined)
inactive: DLD-1 > 100 µM | DMS-114 > 100 µM | DMS-273 > 100 µM | HOP-18 > 100 µM | KM-20L2 > 100 µM | LXFL 529 > 100 µM | M19-MEL > 100 µM | RXF 631 > 100 µM | XF498 > 100 µM

CC1(C)OC2C(=O)OC(COCc3ccccc3)C2O1 (centres undefined)
inactive: DLD-1 > 100 µM | DMS-273 > 100 µM | HOP-18 > 100 µM | KM-20L2 > 100 µM | LXFL 529 > 100 µM | M19-MEL > 100 µM | RXF 631 > 100 µM

CN/N=C(\C(=O)Nc1ccc(C(F)(F)F)cc1[N+](=O)[O-])C(c1cnc2ccc([N+](=O)[O-])cc2n1)[N+](=O)[O-] (centres undefined)
inactive: DLD-1 > 100 µM | DMS-114 10.4 µM | LXFL 529 21.8 µM | M19-MEL 10.9 µM

COc1ccc(C2Oc3c(c(O)cc4c3[C@H](c3ccc(O)cc3O)[C@H](O)C(c3ccc(O)c(O)c3)O4)C[C@@H]2O)cc1O (some centres undefined)
inactive: DLD-1 > 100 µM | DMS-114 > 100 µM | DMS-273 > 100 µM | HOP-18 > 100 µM | KM-20L2 > 100 µM | LXFL 529 > 100 µM | M19-MEL > 100 µM

Reference: ChEMBL document CHEMBL1201862, “PubChem BioAssay data set” (2004)
